How the values were obtained:
PI3Kβ = PI3Kβ (Homo sapiens (Human), UniProt P42338); test: TR-FRET enzymatic assay of PI3K isoforms, PI3Kβ; assay type: biochemical; conditions: for IC50: TR-FRET, 2×Km ATP, 30 minutes at 25° C.; for PI3Kγ/PI3Kβ ratio: ratio of IC50 values, selectivity for PI3Kβ over PI3Kγ
Method: (§1) The compounds of formula (I) were characterized for their enzymatic activity against the PI3K isoforms. The activities were measured using a time-resolved fluorescence resonance energy transfer (TR-FRET) assay. TR-FRET monitored the formation of 3,4,5-inositol triphosphate molecule that competed with fluorescently labeled PIP3 for binding to the GRP-1 pleckstrin homology domain protein.
(§2) Class I PI3K isoforms were expressed and purified as heterodimeric recombinant proteins. All assay reagents and buffers for the TR-FRET assay were purchased from Millipore. […] The reactions were terminated with a final concentration of 10 mM EDTA, 10 nM labeled-PIP3, and 35 nM Europium labeled GRP-1 detector protein before reading TR-FRET on an Envision plate reader (Ex: 340 nm; Em: 615/665 nm; 100 μs delay and 500 μs read window).
(§3) The results were normalized based on positive (1 μM wortmanin) and negative (DMSO) controls, and the IC50 values for PI3K α, β, δ and γ were calculated from the fit of the dose-response curves to a four-parameter equation.

PI3Kγ = PI3Kγ (Homo sapiens (Human), UniProt P48736); test: TR-FRET enzymatic assay of PI3K isoforms, PI3Kγ; assay type: biochemical; conditions: 2×Km ATP, PI3Kγ at 2 nM, 30 minutes at 25° C.
Method: as §1, §2, §3

PI3Kδ = PI3Kδ (Homo sapiens (Human), UniProt O00329); test: TR-FRET enzymatic assay of PI3K isoforms, PI3Kδ; conditions: read-out: PI3Kδ IC50, 2×Km ATP, 30 minutes at 25° C.
PI3Kδ, sequence (O00329 whole entry, canonical isoform): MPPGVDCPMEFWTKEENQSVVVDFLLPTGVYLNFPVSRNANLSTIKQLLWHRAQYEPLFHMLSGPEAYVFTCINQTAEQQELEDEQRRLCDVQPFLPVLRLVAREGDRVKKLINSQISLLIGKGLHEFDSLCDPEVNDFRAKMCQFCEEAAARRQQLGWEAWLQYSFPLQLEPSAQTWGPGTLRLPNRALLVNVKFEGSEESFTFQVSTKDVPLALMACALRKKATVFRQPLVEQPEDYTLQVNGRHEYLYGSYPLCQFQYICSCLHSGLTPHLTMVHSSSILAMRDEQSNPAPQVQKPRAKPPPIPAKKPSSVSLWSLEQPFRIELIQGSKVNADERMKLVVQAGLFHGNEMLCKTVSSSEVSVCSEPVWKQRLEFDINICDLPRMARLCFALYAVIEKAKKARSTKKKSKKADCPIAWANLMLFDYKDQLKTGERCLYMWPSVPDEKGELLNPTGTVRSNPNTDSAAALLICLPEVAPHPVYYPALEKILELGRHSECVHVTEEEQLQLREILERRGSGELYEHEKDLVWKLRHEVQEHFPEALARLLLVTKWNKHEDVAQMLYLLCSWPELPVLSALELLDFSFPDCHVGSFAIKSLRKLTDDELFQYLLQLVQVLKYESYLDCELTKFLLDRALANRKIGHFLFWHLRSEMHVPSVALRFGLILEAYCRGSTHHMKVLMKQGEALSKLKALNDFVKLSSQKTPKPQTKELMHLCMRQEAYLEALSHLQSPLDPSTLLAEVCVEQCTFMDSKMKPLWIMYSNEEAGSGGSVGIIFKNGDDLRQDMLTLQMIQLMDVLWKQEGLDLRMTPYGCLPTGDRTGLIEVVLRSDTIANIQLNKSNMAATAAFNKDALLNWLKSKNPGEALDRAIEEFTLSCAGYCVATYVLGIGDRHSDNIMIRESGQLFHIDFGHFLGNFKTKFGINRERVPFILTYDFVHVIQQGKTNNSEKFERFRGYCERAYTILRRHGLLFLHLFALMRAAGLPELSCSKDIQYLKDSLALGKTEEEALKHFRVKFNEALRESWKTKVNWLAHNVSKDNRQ
PI3Kδ, sequence (P27986 whole entry partner, canonical isoform): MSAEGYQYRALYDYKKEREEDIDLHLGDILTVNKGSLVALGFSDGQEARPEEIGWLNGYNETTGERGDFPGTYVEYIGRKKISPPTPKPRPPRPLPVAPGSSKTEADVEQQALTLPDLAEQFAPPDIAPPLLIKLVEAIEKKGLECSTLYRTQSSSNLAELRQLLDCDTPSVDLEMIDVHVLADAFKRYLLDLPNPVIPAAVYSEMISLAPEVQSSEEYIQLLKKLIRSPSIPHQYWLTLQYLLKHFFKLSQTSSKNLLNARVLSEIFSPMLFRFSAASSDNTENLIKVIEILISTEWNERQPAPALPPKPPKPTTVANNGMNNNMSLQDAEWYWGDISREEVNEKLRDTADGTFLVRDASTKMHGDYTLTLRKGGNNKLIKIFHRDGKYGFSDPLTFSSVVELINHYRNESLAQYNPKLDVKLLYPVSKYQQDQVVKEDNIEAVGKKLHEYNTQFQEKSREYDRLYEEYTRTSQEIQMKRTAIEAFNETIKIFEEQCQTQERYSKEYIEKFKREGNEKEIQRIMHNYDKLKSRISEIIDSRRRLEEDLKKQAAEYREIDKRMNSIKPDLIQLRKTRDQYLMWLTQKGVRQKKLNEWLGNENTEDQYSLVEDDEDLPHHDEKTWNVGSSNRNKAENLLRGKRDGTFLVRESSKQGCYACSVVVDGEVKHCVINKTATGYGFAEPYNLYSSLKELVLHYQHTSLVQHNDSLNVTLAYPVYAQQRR
Method: as §1, §2, §3

PI3Kβ, sequence (P42338 whole entry, canonical isoform): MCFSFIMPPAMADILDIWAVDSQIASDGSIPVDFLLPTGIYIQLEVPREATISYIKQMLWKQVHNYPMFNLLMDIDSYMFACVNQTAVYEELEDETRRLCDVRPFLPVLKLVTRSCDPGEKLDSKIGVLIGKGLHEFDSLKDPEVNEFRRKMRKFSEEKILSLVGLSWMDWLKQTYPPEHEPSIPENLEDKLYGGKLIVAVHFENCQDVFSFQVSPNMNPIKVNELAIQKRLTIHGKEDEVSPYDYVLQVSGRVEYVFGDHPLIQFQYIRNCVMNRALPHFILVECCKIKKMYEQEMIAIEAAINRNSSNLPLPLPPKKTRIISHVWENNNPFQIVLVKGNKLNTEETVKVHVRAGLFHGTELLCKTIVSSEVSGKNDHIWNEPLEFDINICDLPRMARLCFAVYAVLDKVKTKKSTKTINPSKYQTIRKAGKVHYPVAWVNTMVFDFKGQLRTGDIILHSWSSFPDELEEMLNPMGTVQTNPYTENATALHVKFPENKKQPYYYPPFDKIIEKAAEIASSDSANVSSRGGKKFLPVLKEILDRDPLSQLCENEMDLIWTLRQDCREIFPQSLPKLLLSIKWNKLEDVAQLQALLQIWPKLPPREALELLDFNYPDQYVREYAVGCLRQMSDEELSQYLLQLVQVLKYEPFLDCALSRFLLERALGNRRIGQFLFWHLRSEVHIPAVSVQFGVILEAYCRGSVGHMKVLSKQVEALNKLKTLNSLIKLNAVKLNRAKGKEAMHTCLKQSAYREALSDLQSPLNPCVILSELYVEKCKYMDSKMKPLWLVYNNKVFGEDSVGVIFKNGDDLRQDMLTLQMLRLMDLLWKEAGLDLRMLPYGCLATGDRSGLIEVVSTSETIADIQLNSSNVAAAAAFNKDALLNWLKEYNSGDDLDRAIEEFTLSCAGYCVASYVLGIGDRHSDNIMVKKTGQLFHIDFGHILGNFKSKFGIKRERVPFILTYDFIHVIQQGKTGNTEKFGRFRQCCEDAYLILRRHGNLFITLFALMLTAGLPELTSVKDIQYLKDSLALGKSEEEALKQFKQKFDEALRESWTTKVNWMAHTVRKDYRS
PI3Kβ, sequence (P27986 whole entry partner, canonical isoform): as the sequence (P27986 whole entry partner, canonical isoform) above
PI3Kγ, sequence (P48736 whole entry, canonical isoform): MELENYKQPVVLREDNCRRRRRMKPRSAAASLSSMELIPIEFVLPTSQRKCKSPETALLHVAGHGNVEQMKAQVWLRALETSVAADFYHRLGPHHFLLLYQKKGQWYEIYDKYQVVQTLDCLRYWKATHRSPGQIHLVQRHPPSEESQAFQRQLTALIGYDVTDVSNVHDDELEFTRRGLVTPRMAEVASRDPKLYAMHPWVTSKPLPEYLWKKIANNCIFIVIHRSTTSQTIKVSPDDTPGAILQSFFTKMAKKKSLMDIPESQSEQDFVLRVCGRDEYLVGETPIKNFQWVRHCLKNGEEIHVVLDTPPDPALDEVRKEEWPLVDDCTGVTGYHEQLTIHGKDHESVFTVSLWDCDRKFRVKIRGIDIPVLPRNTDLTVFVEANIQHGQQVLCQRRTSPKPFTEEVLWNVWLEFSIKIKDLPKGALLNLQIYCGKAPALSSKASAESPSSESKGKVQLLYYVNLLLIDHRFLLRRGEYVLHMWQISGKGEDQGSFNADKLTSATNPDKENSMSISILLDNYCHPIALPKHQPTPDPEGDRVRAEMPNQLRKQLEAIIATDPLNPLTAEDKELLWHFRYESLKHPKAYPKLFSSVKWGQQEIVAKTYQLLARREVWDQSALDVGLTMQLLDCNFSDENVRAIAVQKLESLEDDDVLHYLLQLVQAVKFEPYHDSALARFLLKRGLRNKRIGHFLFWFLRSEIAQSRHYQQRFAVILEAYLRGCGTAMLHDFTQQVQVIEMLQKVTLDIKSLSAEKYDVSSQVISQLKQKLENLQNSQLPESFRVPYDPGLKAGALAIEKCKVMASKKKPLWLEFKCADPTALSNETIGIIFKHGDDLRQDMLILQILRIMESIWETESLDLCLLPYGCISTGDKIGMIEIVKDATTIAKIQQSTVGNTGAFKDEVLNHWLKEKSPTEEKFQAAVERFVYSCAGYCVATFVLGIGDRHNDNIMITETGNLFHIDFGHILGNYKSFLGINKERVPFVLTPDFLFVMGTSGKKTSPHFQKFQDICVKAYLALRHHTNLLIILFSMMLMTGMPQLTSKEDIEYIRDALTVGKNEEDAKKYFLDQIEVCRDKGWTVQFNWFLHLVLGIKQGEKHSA

IC50 (PI3Kβ) [nM] | IC50 (PI3Kγ) [nM] | IC50 (PI3Kδ) [nM] | PI3Kγ/PI3Kβ ratio (PI3Kβ) | SMILES
720 | > 10000 | – | – | Nc1cnc(-n2c([C@@H](Nc3ncnc(N)c3Cl)C3CC3)nc3cccc(Cl)c3c2=O)cn1 [Compound 21, (S)-2-(((6-Amino-5-chloropyrimidin-4-yl)amino)(cyclopropyl)methyl)-3-(5-aminopyrazin-2-yl)-5-chloroquinazolin-4(3H)-one]
190 | > 10000 | 24 | – | Nc1cnc(-n2c([C@@H](Nc3nc(N)nc(N)c3Cl)C3CC3)nc3cccc(Cl)c3c2=O)cn1 [Compound 8, (S)-3-(5-aminopyrazin-2-yl)-5-chloro-2-(cyclopropyl((2,6-diamino-5-chloropyrimidin-4-yl)amino)methyl)quinazolin-4(3H)-one]
47 | 4000 | 24 | – | C[C@H](Nc1nc(N)nc(N)c1Cl)c1nc2cccc(Cl)c2c(=O)n1-c1cnc(N)cn1 [Compound 7, (S)-3-(5-aminopyrazin-2-yl)-5-chloro-2-(1-((2,6-diamino-5-chloropyrimidin-4-yl)amino)ethyl)quinazolin-4(3H)-one]
– | – | – | less than 1 | C[C@H](Nc1nc(N)nc(N)c1C#N)c1nc2cccc(Cl)c2c(=O)n1-c1ccccc1 [(S)-2,4-diamino-6-((1-(5-chloro-4-oxo-3-phenyl-3,4-dihydroquinazolin-2-yl)ethyl)amino)pyrimidine-5-carbonitrile, reference compound]
– | – | – | 0.6 | C[C@H](Nc1nc(N)nc(N)c1C#N)c1nc2cccc(Cl)c2c(=O)n1-c1cccnc1 [Compound X, (S)-2,4-diamino-6-((1-(5-chloro-4-oxo-3-(pyridin-3-yl)-3,4-dihydroquinazolin-2-yl)ethyl)amino)pyrimidine-5-carbonitrile, reference compound]
170 | > 10000 | 31 | – | C[C@H](Nc1nc(N)nc(N)c1Cl)c1nc2c(Cl)ccc(Cl)c2c(=O)n1-c1cnc(N)cn1 [Compound 13, (S)-3-(5-aminopyrazin-2-yl)-5,8-dichloro-2-(1-((2,6-diamino-5-chloropyrimidin-4-yl)amino)ethyl)quinazolin-4(3H)-one]
14 | 4900 | 32 | – | C[C@H](Nc1nc(N)nc(N)c1C#N)c1nc2c(Cl)cc(F)cc2c(=O)n1-c1cnc(N)cn1 [Compound 17]

Further lines, the compound ahead of its results:

SMILES | IC50 (PI3Kβ) [nM] | IC50 (PI3Kγ) [nM] | IC50 (PI3Kδ) [nM] | PI3Kγ/PI3Kβ ratio (PI3Kβ)
C[C@H](Nc1nc(N)nc(N)c1Cl)c1nc2c(F)ccc(Cl)c2c(=O)n1-c1cnc(N)cn1 [Compound 1, (S)-3-(5-aminopyrazin-2-yl)-5-chlor-2-(1-((2,6-diamino-5-chloropyrimidin-4-yl)amino)ethyl)-8-fluoroquinazolin-4(3H)-one] | 54 | > 10000 | – | –
C[C@H](Nc1ncnc(N)c1C#N)c1nc2c(F)ccc(Cl)c2c(=O)n1-c1cnc(N)cn1 [Compound 3, (S)-4-amino-6-((1-(3-(5-aminopyrazin-2-yl)-5-chloro-8-fluoro-4-oxo-3,4-dihydroquinazolin-2-yl)ethyl)amino)pyrimidine-5-carbonitrile] | 74 | > 10000 | 11 | –
N#Cc1c(N)nc(N)nc1N[C@H](c1nc2cccc(Cl)c2c(=O)n1-c1cnc(N)cn1)C1CC1 [Compound 9] | 4.2 | 900 | 2.7 | –
C[C@H](Nc1nc(N)nc(C(F)F)c1C#N)c1nc2c(Cl)cc(F)cc2c(=O)n1-c1cnc(N)cn1 [Compound 14, (S)-2-amino-4-((1-(3-(5-aminopyrazin-2-yl)-8-chloro-6-fluoro-4-oxo-3,4-dihydroquinazolin-2-yl)ethyl)amino)-6-(difluoromethyl)pyrimidine-5-carbonitrile] | 200 | > 10000 | 340 | –
C[C@H](Nc1ncnc2occc12)c1nc2c(F)ccc(Cl)c2c(=O)n1-c1cnc(N)cn1 [Compound 5, (S)-3-(5-amninopyrazin-2-yl)-5-chloro-8-fluoro-2-(1-(furo[2,3-d]pyrimidin-4-ylamino)ethyl)quinazolin-4(3H)-one] | 5800 | > 10000 | 2300 | –
Nc1cnc(-n2c([C@@H](Nc3nc(N)nc(N)c3Cl)C3CC3)nc3c(Cl)ccc(Cl)c3c2=O)cn1 [Compound 12, (S)-3-(5-aminopyrazin-2-yl)-5,8-dichloro-2-(cyclopropyl((2,6-diamino-5-chloropyrimidin-4-yl)amino)methyl)quinazolin-4(3H)-one] | 1200 | > 10000 | 97 | –
C[C@H](Nc1nc(N)nc(N)c1C#N)c1nc2c(Cl)ccc(Cl)c2c(=O)n1-c1cnc(N)cn1 [Compound 11, (S)-2,4-diamino-6-((1-(3-(5-aminopyrazin-2-yl)-5,8-dichloro-4-oxo-3,4-dihydroquinazolin-2-yl)ethyl)amino)pyrimidine-5-carbonitrile] | 1.8 | 1500 | 1.9 | –
C[C@H](Nc1ncnc2[nH]nnc12)c1nc2c(F)cccc2c(=O)n1-c1cnc(N)cn1 [Compound 4, (S)-2-(1-((3H-[1,2,3]triazolo[4,5-d]pyrimidin-7-yl)amino)ethyl)-3-(5-aminopyrazin-2-yl)-8-fluoroquinazolin-4(3H)-one] | > 10000 | > 10000 | 2700 | –
C[C@H](Nc1nc(N)nc(N)c1C#N)c1nc2cccc(Cl)c2c(=O)n1-c1cnc(N)cn1 [Compound 6, (S)-2,4-diamino-6-((1-(3-(5-aminopyrazin-2-yl)-5-chloro-4-oxo-3,4-dihydroquinazolin-2-yl)ethyl)amino)pyrimidine-5-carbonitrile] | 2 | 280 | 2 | –
N#Cc1c(N)nc(N)nc1N[C@H](c1nc2c(Cl)ccc(Cl)c2c(=O)n1-c1cnc(N)cn1)C1CC1 [Compound 10, (S)-2,4-diamino-6-(((3-(5-aminopyrazin-2-yl)-5,8-dichloro-4-oxo-3,4-dihydroquinazolin-2-yl)(cyclopropyl)methyl)amino)pyrimidine-5-carbonitrile] | 3.6 | 3100 | 2.4 | –
C[C@H](Nc1nc(N)nc(N)c1C#N)c1nc2c(F)cc(F)cc2c(=O)n1-c1cnc(N)cn1 [Compound 15, (S)-2,4-Diamino-6-((1-(3-(5-aminopyrazin-2-yl)-6,8-difluoro-4-oxo-3,4-dihydroquinazolin-2-yl)ethyl)amino)pyrimidine-5-carbonitrile] | 9.8 | 1500 | 53 | –
C[C@H](Nc1nc(N)nc(N)c1C#N)c1nc2c(F)ccc(Cl)c2c(=O)n1-c1cnc(N)cn1 [Compound 2, (S)-2,4-diamino-6-((1-(3-(5-aminopyrazin-2-yl)-5-chloro-8-fluoro-4-oxo-3,4-dihydroquinazolin-2-yl)ethyl)amino)pyrimidine-5-carbonitrile] | 4.4 | 630 | 3.5 | –

From patent publication US9499523B2, “Phosphatidylinositol 3-kinase inhibitors” (Gilead Sciences, Inc., priority 2014, dated 2016)
